Results reported in patent US8986689B2, “Compositions and methods for brain delivery of analgesic peptides” (National Research Council of Canada, priority 2010, dated 2015).
Non-standard residues stand in square brackets, D forms with d. No end group written: not given here.

Columns and labels:
[1] = system: male CD-1 mice; test: Tail flick assay (acute pain); assay type: in vivo, mouse; conditions: for Analgesic effect after intra-cerebroventricular injection: 15 min and 30 min after injection
[2] = target: opioid receptors (Rattus norvegicus, UniProt P33535); test: Opioid receptor binding competition assay against 3H-DAMGO in isolated rat brain membranes; conditions: 30 nM 3H-DAMGO, capillary-depleted rat brain membranes
Sequence of opioid receptors (P33535 whole entry): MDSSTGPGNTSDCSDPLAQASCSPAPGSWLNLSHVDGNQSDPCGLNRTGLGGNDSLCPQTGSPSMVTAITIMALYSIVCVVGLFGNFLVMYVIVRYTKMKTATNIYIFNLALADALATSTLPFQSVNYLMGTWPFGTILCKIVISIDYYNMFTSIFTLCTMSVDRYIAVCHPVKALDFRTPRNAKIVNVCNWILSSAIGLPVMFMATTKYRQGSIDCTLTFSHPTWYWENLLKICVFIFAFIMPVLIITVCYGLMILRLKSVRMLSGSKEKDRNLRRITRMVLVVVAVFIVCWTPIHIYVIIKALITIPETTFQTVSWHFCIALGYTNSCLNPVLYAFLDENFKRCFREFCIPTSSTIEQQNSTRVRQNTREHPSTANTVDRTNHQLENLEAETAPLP
Procedure: The homogenate was centrifuged at 5800×g (10,000 rpm; Beckman L8-70 Ultracentrifuge, Rotor: SW 40) for 20 min at 4 degrees. The upper parenchyma layer was then collected and centrifuged under the same conditions. The upper parenchyma layer was again collected, and 1 Volume of 50 mM Tris-buffer pH 7.4 containing [2×] of protease inhibitor was added to the collected parenchyma. The mixture was homogenized using a motorized pestle. The homogenate was centrifuged at 46,000×g for 15 minutes at 4° C. The supernatant was removed and the pellet re-suspended in 1 Volume Tris-buffer pH 7.4 containing [2×] of protease inhibitor. The re-suspended pellet was incubated at 37° C. for 15 minutes with agitation in a 50 ml conical tube to dissociate endogenous opioids from receptors. After incubation, the homogenate was centrifuged at 46,000×g for 15 minutes at 4° C. The supernatant was again removed and the pellet re-suspended in 1 to 1.5 Volume Tris-buffer pH 7.4 containing [1×] of protease inhibitor. The membrane preparation was aliquoted into 1.5 ml tubes in 1 ml samples and stored at −80° C.
Opioid Receptor binding assay used a μ opioid receptor agonist, ^3H-DAMGO, to bind to opioid receptors present in the rat brain membrane preparation. Displacement studies were done with unlabelled ligands, Dalargin, and Dalargin-FC5. Briefly, diluted reagents were prepared using 50 mM Tris-buffer pH7.4, as follows: • i. […] 500 nM FC5-Dal: 16.67 μl 30 μM FC5-Dal and 1 ml Tris-buffer; • v.
Tris-buffer was added to each well, followed by a range of Dalargin concentrations, followed by ^3H-DAMGO. The reaction mixture was left at RT with gentle orbital shaking for 1.5 hr. A scintillation cocktail was then added and radioactive counts were measured using beta scintillation counter.
Specific activity for ^3H-DAMGO was 56.8 Ci/mmol. Percentage specific bound at each concentration of unlabelled competitor was calculated using the formula: % specific bound=Bound/Total bound*100.

[3] = system: male Wistar rats; test: Paw flick assay (Hargreaves method, CFA chronic inflammatory pain); assay type: in vivo, rat; conditions: for Analgesic effect after intravenous injection: tail vein, three injections at 0, 1 and 2 h, Dalargin-cys 0.34 mg/kg, FC5 and EG2-Dalargin 7 mg/kg
Procedure: (§1) Chronic inflammatory pain was induced in 4-6 week old male Wistar rats, by a intra-plantar (i.pl.) injection (100 μl with a 30-gauge needle) of complete Freund's adjuvant in sterile water in a ratio of 1:1 in the right hind paw under brief isoflurane anesthesia (3%). Three days after CFA injection the putative antinociceptive effect of different compounds was quantified by measuring latencies of withdrawal of both hind limb paws (ipsilateral and contralateral to CFA injection) in response to radiant heat using digitalized plantar Analgesia Meter for paw stimulation (IITC Model #336TG Life Science, Inc.). A rapid paw withdrawal on the side of CFA injection (compared to the contralateral non-injected paw) was indicative of inflammatory pain. During the training period (before experiments), the light-intensity lamp was adjusted to elicit baseline paw withdrawal latencies between 17 to 20 s (in rats). […] Results were analyzed as temporal courses of paw withdrawal latency (sec) versus time (min or hrs) and expressed as % of maximum possible effect (% MPE) as described in Example 5. A subcutaneous injection of morphine 10 mg/kg served as a positive control.
For intra-cerebroventricular injections in rats, a longitudinal incision was made in the scalp to identify the bregma; then animals received a unilateral 5 μl intra-cerebroventricular injection of either FC5-Dalargin or Dalargin alone approximately 0.8 mm anterioposterior (AP) level of bregma, 1.5 mm with respect to the midline and 3.5 mm ventral from the skull surface. Injections were made using a Hamilton syringe equipped with a 25-gauge needle. Injection depth was controlled by a plug on the needle to prevent more than 3.5 mm penetration beyond the skull surface.
In contrast, FC5-Dalargin induced cumulative analgesia after each i.v. dosing, reaching 100% MPE 45 min-1 hour after the third injection and gradually ‘washing-out’ over a subsequent three hours (FIG. 12, closed triangles), similar to what was observed after intra-cerebroventricular injections of Dalargin-cys and FC5-Dalargin (FIGS. 10 and 11). If Fc5-Dalargin injection was given 4th time at 3 h (FIG. 12, open polygons), the ‘wash-out’ (i.e., disappearance of analgesic effect) was somewhat extended. […] When Dalargin is functionalized with the blood-brain barrier ‘carrier’ single domain antibody, FC5, Dalargin becomes efficacious in inducing analgesia in chronic pain because FC5 enables its delivery across the blood brain barrier to the sites of its pharmacological action, central opioid receptors.
as §1, with “5-7 weeks” for “4-6 week”, “5.” for “5. A subcutaneous injection of morphine 10 mg/kg served as a positive control.”
Rats received 5 μl intra-cerebroventricular injections of NPY (1 μg) as described in Example 6.
NPY was then injected intravenously in the tail vein in two injections, each containing 2.02 mg/kg of NPY, 1 h apart from each other as described in Example 6. […]

[4] = system: Immortalized Adult Rat brain endothelial cells (ARBEC); test: Transport across in vitro blood brain barrier model; conditions: Cy5.5-labelled, 10 μg/ml added to apical chamber, ARBEC monolayer
Procedure: FC5 and FC5-Dalargin were labelled by covalent conjugation to Cy5.5 N-hydroxysuccinimide (NHS) ester using methods recommended by the manufacturer (GE Healthcare). Cy5.5 NHS was bound to FC5 through a thioether covalent bond.
Immortalized Adult Rat brain endothelial cells (ARBEC) were used as the in vitro blood brain barrier model. ARBEC (80,000 cells/membrane) were seeded on a 0.5% gelatine-coated Falcon tissue culture inserts (pore size-1 μm; surface area 0.83 cm^2) in 1 ml of growth medium. The bottom chamber of the insert assembly contained 2 ml of growth medium supplemented with the fetal human astrocyte-conditioned medium in a 1:1 (v/v) ratio.
Transport studies were performed 7 days post-seeding. Filter inserts were rinsed with transport buffer (PBS containing 5 mM glucose, 5 mM MgCl2, 10 mM HEPES, 0.05% BSA, pH 7.4) and allowed to equilibrate at 37° C. for 30 minutes. Experiments were initiated by adding 10 μg/ml Cy5.5-labelled FC5-Dalargin or Cy5.5-labelled FC5 to the apical chamber. Aliquots (100 μl) were collected from the opposite chamber at various time intervals (5, 15, 30, 60, 120 minutes) and replaced with fresh buffer. The amount of FC5-Dalargin transported across HCEC monolayers was determined by fluorescence in a fluorescence plate reader.

[5] = 0.86 mg/kg of Dalargin, intra-carotid, 30 min after injection
[6] = 1.72 mg/kg of Dalargin, intra-carotid, 30 min after injection

Q: What does the source list for “Tyr-[D-Ala]-Gly-Phe-Leu-Arg (Y[dA]GFLR) [Dalargin]”?
A: % MPE (30 min) [1, 5]: 19%; % MPE (30 min) [1, 6]: 17%; Time of return to basal levels after intra-cerebroventricular injection ([1]; icv): 60 min; Analgesic effect after intra-cerebroventricular injection ([1]; icv): reaching maximal latency of response; Analgesic effect after intra-carotid injection ([1]; intra-carotid, 0.86 and 1.72 mg/kg): No analgesic effect

Q: “Dalargin-cysteamide-OH (Y[dA]GFLR; not fully specified (C-terminus)) [Dalargin with a cysteamide-OH residue used for conjugation]” was tested. Which “Displacement of 3H-DAMGO (receptor binding competition)” value [2] did it give?
A: only slightly less potent than Dalargin

Q: And the “Time of return to basal levels after intra-cerebroventricular injection” value ([1]; icv)?
A: 60 min

Q: And the “Analgesic effect after intra-cerebroventricular injection” value ([1]; icv)?
A: reaching maximal latency of response

Q: What about the “% of maximal effect” value ([3]; icv, 1.08 μg) of the same molecule?
A: 75%

Q: And the “% MPE” value ([3]; icv, 10.08 μg)?
A: 100%

Q: What about the “Analgesic effect after intravenous injection” value [3] of the same molecule?
A: did not increase latency of withdrawal of the inflamed paw

Q: Which results are given for “FC5-Dalargin: FC5 sdAb conjugated via Sulfo-SMCC cross-linker to Dalargin-cysteamide”?
A: Displacement of 3H-DAMGO (receptor binding competition) [2]: only slightly less potent than Dalargin; % MPE (30 min) [1, 5]: 63%; % MPE (30 min) ([1]; 0.86 mg/kg of Dalargin, intra-carotid, 30 min after injection, listed as FC5-Dal): 63%; % MPE (30 min) [1, 6]: 66%; % MPE (30 min) ([1]; 1.72 mg/kg of Dalargin, intra-carotid, 30 min after injection, listed as FC5-Dal): 66%; Maximal analgesia, % of maximum effect ([1]; icv, 30 min after injection): 40%; Persisting analgesia, % above basal levels ([1]; icv, for up to 90 min): 10-15%; % MPE ([3]; i.v. 7 mg/kg, three injections at 0, 1, 2 h, 45 min-1 hour after the third injection): 100%; Analgesic effect after icv injection ([3]; icv, 74.4 μg): complete analgesia; Duration of analgesia after icv injection ([3]; icv, 74.4 μg): 120 min; Permeability co-efficients (Pe) [4]: 4.17 ×10⁻⁶ cm/s

Q: With `CN1CC[C@]23c4c5ccc(O)c4O[C@H]2[C@@H](O)C=C[C@H]3[C@H]1C5` [Morphine, morphine] as the molecule, how does the “% of the maximal analgesic effect (observed with 10 mg/kg morphine)” value ([1]; 3 mg/kg s.c.) read?
A: approximately 50%

Q: And the “% MPE (30 min)” value ([1]; 3 mg/kg sc, 30 min after injection)?
A: 56%

Q: What about the Tail flick latency ([1]; 10 mg/kg morphine s.c., 30 min after injection, cut-off 10 sec) of the same molecule?
A: 10 s

Q: What about the “% MPE (30 min)” value ([1]; 10 mg/kg sc, 30 min after injection) of the same molecule?
A: 100%

Q: What about the “Effect on CFA-injected paw withdrawal latency” value ([3]; 10 mg/kg subcutaneous, positive control) of the same molecule?
A: prompt increase in CFA-injected paw withdrawal latency to values of the contralateral, non-inflamed paw

Q: What about the “Duration of the increase in paw withdrawal latency” value ([3]; 10 mg/kg subcutaneous, then slowly diminishing over 3 hours) of the same molecule?
A: 60 min

B1: FC5: blood-brain barrier-transmigrating single domain antibody, SEQ ID NO:4, expressed with His5 and c-myc tags (protein)
VHH: EVQLQASGGGLVQAGGSLRLSCAASGFKITHYTMGWFRQAPGKEREFVSRITWGGDNTFYSNSVKGRFTISRDNAKNTVYLQMNSLKPEDTADYYCAAGSTSTATPLRVDYWGKGTQVTVSS
modifications: His5 and c-myc tags; FC5 sdAb
Q: For B1, which “Displacement of 3H-DAMGO (receptor binding competition)” value [2] is on record?
A: did not displace

Q: What about the “Analgesic effect after intravenous injection” value [3] of the same molecule?
A: Neither FC5 alone nor EG2-Dalargin construct induced any analgesic effect

Q: What about the “Permeability co-efficients (Pe)” value [4] of the same molecule?
A: 3.25 ×10⁻⁶ cm/s
